Measured values taken from patent publication US6166290A, “Glutathione-S-conjugate transport in plants” (The Trustees of the University of Pennsylvania, priority 1997, dated 2000).
Like-named read-outs stand apart in the source and are kept apart here.

How the values were obtained:
[1] = molecular target: T1, YCF1 (vacuolar membrane vesicles purified from DTY165 cells) (Saccharomyces cerevisiae, UniProt P39109); assay: [3H]DNP-GS uptake by vacuolar membrane vesicles purified from DTY165 cells; format: biochemical; details: for DNP-GS uptake as percentage of control plus the compound indicated: 10 min
T1 construct: endogenous in cells; host or cells: S. cerevisiae DTY165 (wild type YCF1), vacuolar membrane vesicles
T1 sequence (P39109 whole entry): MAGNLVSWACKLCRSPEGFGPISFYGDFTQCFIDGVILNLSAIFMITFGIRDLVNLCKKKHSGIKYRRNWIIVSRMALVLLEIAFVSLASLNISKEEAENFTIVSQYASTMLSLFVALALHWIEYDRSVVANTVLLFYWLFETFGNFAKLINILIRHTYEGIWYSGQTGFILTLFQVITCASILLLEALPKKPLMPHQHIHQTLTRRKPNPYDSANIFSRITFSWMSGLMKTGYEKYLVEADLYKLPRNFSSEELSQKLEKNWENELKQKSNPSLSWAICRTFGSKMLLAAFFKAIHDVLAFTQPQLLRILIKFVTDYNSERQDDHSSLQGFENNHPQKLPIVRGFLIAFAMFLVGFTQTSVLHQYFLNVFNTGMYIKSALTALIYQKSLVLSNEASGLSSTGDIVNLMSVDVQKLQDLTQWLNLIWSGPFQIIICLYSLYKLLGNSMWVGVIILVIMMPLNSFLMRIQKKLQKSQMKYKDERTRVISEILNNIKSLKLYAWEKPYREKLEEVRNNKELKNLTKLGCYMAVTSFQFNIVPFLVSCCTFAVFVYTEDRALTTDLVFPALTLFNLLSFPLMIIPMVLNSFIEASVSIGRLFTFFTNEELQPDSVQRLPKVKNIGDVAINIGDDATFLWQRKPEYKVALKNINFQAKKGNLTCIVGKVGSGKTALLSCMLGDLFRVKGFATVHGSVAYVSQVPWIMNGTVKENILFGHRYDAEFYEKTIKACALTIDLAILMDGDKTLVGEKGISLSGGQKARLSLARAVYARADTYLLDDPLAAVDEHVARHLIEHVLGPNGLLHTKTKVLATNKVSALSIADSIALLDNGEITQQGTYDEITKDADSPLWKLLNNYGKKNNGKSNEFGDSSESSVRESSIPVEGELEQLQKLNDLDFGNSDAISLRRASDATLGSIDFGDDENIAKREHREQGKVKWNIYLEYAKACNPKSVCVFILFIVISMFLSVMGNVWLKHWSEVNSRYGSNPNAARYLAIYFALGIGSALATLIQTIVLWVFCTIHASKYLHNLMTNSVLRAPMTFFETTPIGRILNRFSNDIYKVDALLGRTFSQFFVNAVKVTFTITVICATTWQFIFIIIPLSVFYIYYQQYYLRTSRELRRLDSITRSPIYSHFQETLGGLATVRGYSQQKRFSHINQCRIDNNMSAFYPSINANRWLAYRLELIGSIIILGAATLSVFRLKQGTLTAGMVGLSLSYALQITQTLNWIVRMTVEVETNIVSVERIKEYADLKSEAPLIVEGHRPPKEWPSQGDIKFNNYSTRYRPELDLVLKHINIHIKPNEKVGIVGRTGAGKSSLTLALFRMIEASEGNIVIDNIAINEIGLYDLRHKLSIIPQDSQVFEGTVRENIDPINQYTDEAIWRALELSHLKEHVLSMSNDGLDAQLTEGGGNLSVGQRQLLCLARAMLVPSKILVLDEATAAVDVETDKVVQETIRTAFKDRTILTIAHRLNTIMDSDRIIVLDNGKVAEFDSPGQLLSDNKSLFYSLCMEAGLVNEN
Method: (§1) For the routine preparation of vacuolar membrane vesicles, 15 ml of stationary phase cultures of DTY165 or DTY167 were diluted into 1-liter volumes of fresh YPD medium, grown for 24 hours at 30° C. to an OD600 nm of approximately 0.8 and collected by centrifugation. After washing with distilled water, the cells were converted to spheroplasts with Zymolyase 20T (ICN) (Kim et al., 1994, supra) and intact vacuoles were isolated by flotation centrifugation of spheroplast lysates on Ficoll 400 step gradients as described by Roberts et al. (1991, Methods. Enzymol. 194:644-661). Both the spheroplast lysis buffer and Ficoll gradients contained 2 mg/ml bovine serum albumin, 1 μg/ml aprotinin, 1 μg/ml leupeptin, 1 μg/ml pepstatin, and 1 mM PMSF to minimize proteolysis. The resulting vacuole fraction was vesiculated in 5 mM MgCl2, 25 mM KCl, 10 mM Tris-Mes (pH 6.9) containing 2 mg/ml bovine serum albumin, 1 μg/ml aprotinin, 1 μg/ml leupeptin, 1 μg/ml pepstatin, and 1 mM PMSF, pelleted by centrifugation at 37,000× g for 25 min, and resuspended in suspension medium (1.1 M glycerol, 2 mM dithiothreitol, 1 mM Tris-EGTA, 2 mg/ml bovine serum albumin, 1 μg/ml aprotinin, 1 μg/ml leupeptin, 1 μg/ml pepstatin, 1 mM PMSF, 5 mM Tris-Mes, pH 7.6) (Kim et al., 1995, J. Biol. Chem. 270:2630-2635).
(§2) Unless otherwise indicated, [^3 H]DNP-GS uptake was measured at 25° C. in 200 μl reaction volumes containing 3 mM ATP, 3 mM MgSO4, 5 μM gramicidin-D, 10 mM creatine phosphate, 16 units/ml creatine kinase, 50 mM KC 1, 1 mg/ml bovine serum albumin, 400 mM sorbitol, 25 mM Tris-Mes (pH 8.0), and 66.2 μM [^3 H]DNP-GS (8.7 mCi/mmol) (Li et al., 1995, supra). […] Uptake was initiated by the addition of vacuolar membrane vesicles (10-15 μg of membrane protein), brief mixing of the samples on a vortex mixer and uptake was then allowed to proceed for 1-60 minutes. Uptake was terminated by the addition of 1 ml of ice-cold wash medium (400 mM sorbitol, 3 mM Tris-Mes, pH 8.0) and vacuum filtration of the suspension through prewetted Millipore HA cellulose nitrate membrane filters (pore diameter, 0.45 μm). The filters were rinsed twice with 1 ml of ice-cold wash medium and air-dried, and radioactivity was determined by liquid scintillation counting in BCS mixture (Amersham Corp.). Nonenergized [^3 H]DNP-GS uptake and extravesicular solution trapped on the filters were enumerated by the same procedure except that ATP and Mg^2 +were omitted from the uptake medium.

[2] = system: vacuolar membrane vesicles purified from DTY167 cells (ycf1Δ mutant); format: biochemical, Saccharomyces cerevisiae; details: for DNP-GS uptake as percentage of control plus the compound indicated: 10 min
Method: as §1, §2

[3] = molecular target: T1, YCF1 (vacuolar membrane vesicles purified from DTY165 cells); assay: biochemical; format: biochemical; details: for 109Cd.GS2 uptake as percentage of control: 10 min
Method: (§3) In experiments involving cadmium transport, dithiothreitol and EGTA were removed from the suspension medium to prevent the attenuation of YCF1-dependent Cd^2+ transport otherwise exerted by these compounds. Vesiculated vacuolar membranes were subjected to three cycles of 50-fold dilution into simplified suspension medium (1.1 M glycerol, 5 mM Tris-Mes, pH 8.0), centrifugation at 100,000× g for 35 minutes and resuspension in the same medium before use.
(§4) Singly radiolabeled ^109 Cd.GSn and doubly radio-labeled ^109 Cd[^3 H].GS^n complexes were prepared by sequential gel-filtrationand anion-exchange chromatography of the reaction products generated by incubating 20 mM ^109 CdSO4 (78.4 mCi/mmol) with 40 mM GSH or 40 mM [^3 H]GSH (240 mCi/mmol) in 15 ml 10 mM phosphate buffer (pH 8.0) containing 150 mM KNO3 at 45° C. for 24 hours. For gel-filtration, 2 ml aliquots of the reaction mixture were applied to a column (40×1.5 cm ID) packed with water-equilibrated Sephadex G-1 5, eluted with deionized water and ^109 Cd and/or ^3 H in the fractions was measured by liquid scintillation counting. The fractions encompassed by each of the two ^109 Cd.GSn peaks identified were pooled, lyophilized and redissolved in 4 ml of loading buffer (5 mM Tris-Mes, pH 8.0). For anion-exchange chromatography, 0.5 ml aliquots of the resuspended lyophilizates from gel-filtration chromatography were applied to a Mono-Q HR5/5 column (Pharmacia) equilibrated with the same buffer. Elution was with a linear gradient of NaCl (0.5 ml/minute; 0-500 mM) dissolved in loading buffer. The individual fractions corresponding to the major peaks of ^109 Cd obtained from the Mono-Q column (one each for the peaks resolved by gel-filtration chromatography) were pooled, lyophilized and resuspended in 4 ml deionized water after liquid scintillation counting.
(§5) MgATP-energized, uncoupler-insensitive ^109 Cd^2+ uptake by vacuolar membrane vesicles was measured at 25° C. in 200 μl reaction volumes containing 3 mM ATP, 3 mM MgSO4, 5 μM gramicidin-D, 10 mM creatine phosphate, 16 units/ml creatine kinase, 50 mM KCl, 400 mM sorbitol, 25 mM Tris-Mes (pH 8.0) and the indicated concentrations of ^109 CdSO4, GSH or ^109 Cd- and/or ^3 H-labeled purified Cd.GSn complexes as described herein except that the wash media contained 100 μM CdSO4 in addition to sorbitol (400 mM) and Tris-Mes (3 mM, pH 8.0).

[4] = system: vacuolar membrane vesicles purified from DTY167 cells (ycf1Δ mutant); format: biochemical, Saccharomyces cerevisiae; details: for 109Cd.GS2 uptake as percentage of control: 10 min
Method: as §3, §4, §5

[5] = system: vacuolar GS-X pump (vacuolar membrane vesicles, V. radiata hypocotyls); assay: GS-conjugate uptake by vacuolar membrane vesicles from etiolated hypocotyls of V. radiata; format: biochemical, Vigna radiata; details: 65 μM
Method: Values shown are means ±SE (n=3).
Vacuolar membrane vesicles were purified from etiolated hypocotyls of V. radiata cv.
Unless otherwise indicated, [^3 H]medicarpin or [3H]medicarpin-GS uptake was measured at 25° C. in 200 μl reaction volumes containing 3 mM ATP, 3 mM MgSO4, 10 mM creatine phosphate, 16 U/ml creatine kinase, 50 mM KCl, 0.1% (w/v) BSA, 400 mM sorbitol and 25 mM Tris-Mes buffer, pH 8.0. Uptake was initiated by the addition of 12 μl membrane vesicles (30-40 μg protein) and brief mixing of the samples on a vortex mixer. Uptake was terminated by the addition of 1 ml ice-cold wash medium (400 mM sorbitol, 3 mM Tris-Mes, pH 8.0) and vacuum filtration of the suspension through prewetted HA cellulose nitrate filters (pore diameter 0.45 μm). The filters were rinsed twice with a 1 ml ice-cold wash medium, air-dried and radioactivity was determined by liquid scintillation counting.

[6] = 66.2 μM DNP-GS, 3 mM MgATP (omitted with MgAMP-PNP), MgAMP-PNP 3 mM, bafilomycin A1 0.5 μM, FCCP 5 μM, gramicidin D 5 μM, NH4Cl 1 mM
[7] = 50 μM 109Cd.GS2, bafilomycin A1 0.5 μM, FCCP 5 μM, gramicidin-D 5 μM, NH4Cl 1 mM
[8] = 50 μM (as Cd), 5 μM gramicidin-D
[9] = 50 μM (as Cd), pretreated 1:4 with 2-ME, 60° C., 10 minutes

MgATP
Vmax(MgATP) of uncoupler-insensitive DNP-GS uptake ([1]; 66.2 μM DNP-GS, 5 μM gramicidin D): 38.4±5.6 nmol/mg/10 minutes | DNP-GS uptake as percentage of control, MgATP omitted ([1]; --MgATP, 66.2 μM DNP-GS): 2.8% | DNP-GS uptake, MgATP omitted ([1]; --MgATP, 66.2 μM DNP-GS): 2.2 ± 0.4 nmol/mg/10 minutes | Km ([1]; read-out: Km(MgATP) of uncoupler-insensitive DNP-GS uptake, 66.2 μM DNP-GS, 5 μM gramicidin D, 10 minutes): 86.5 ± 29.5 µM | DNP-GS uptake as percentage of control, MgATP omitted ([2]; --MgATP, 66.2 μM DNP-GS): 9.7% | DNP-GS uptake, MgATP omitted ([2]; --MgATP, 66.2 μM DNP-GS): 1.5 ± 0.6 nmol/mg/10 minutes

Cl.N [NH4 Cl, Ammonium chloride]
DNP-GS uptake plus the compound indicated [1, 6]: 69.1 ± 2.9 nmol/mg/10 minutes | DNP-GS uptake as percentage of control plus the compound indicated ([1]; as Table 1 concentrations): 88.9% | DNP-GS uptake plus the compound indicated [2, 6]: 14.9 ± 0.7 nmol/mg/10 minutes | DNP-GS uptake as percentage of control plus the compound indicated ([2]; as Table 1 concentrations): 96.8% | 109Cd.GS2 uptake plus addition [3, 7]: 89.8 ± 8.2 nmol/mg/10 minutes | 109Cd.GS2 uptake as percentage of control ([3]; as Table 7 concentrations): 84.8% | decrease of MgATP-dependent Cd.GS2 uptake ([3]; text to Table 7): 15% | 109Cd.GS2 uptake plus addition [4, 7]: 10.0 ± 1.7 nmol/mg/10 minutes | 109Cd.GS2 uptake as percentage of control ([4]; as Table 7 concentrations): 57.8%

COc1ccc2c(c1)OC1c3ccc(O)cc3OCC21 (stereo not drawn) [medicarpin]
uptake in the presence of MgATP ([5]; 3 mM MgATP): 16.7±3.6 nmol/mg/20 minutes | uptake in the absence of MgATP ([5]; -MgATP): 7.4±1.3 nmol/mg/20 minutes

OCCS [2-mercaptoethanol]
inhibition of Cd2+ uptake by pretreatment of HMW-Cd.GS ([3]; pretreatment with 2-mercaptoethanol): > 80%

N[C@@H](CCC(=O)N[C@@H](C[S][Cd][S]C[C@H](NC(=O)CC[C@H](N)C(=O)O)C(=O)NCC(=O)O)C(=O)NCC(=O)O)C(=O)O [HMW-Cd.GS, bis(glutathionato)cadmium]
Vmax for MgATP-dependent, uncoupler-insensitive Cd.GS2 uptake [3]: 157.2±60.7 nmol/mg/10 minutes | 109Cd.GS2 uptake, control ([3]; 50 μM 109Cd.GS2, no addition): 105.8 ± 12.4 nmol/mg/10 minutes | 109Cd uptake of Mono-Q fraction [3, 8]: 66.3 ± 2.7 nmol/mg/10 min | 109Cd uptake after 2-ME pretreatment [3, 9]: 11.9 ± 2.4 nmol/mg/10 min | Vmax for MgATP-dependent, uncoupler-insensitive Cd.GS2 uptake ([3]; listed as Cd.GS2): 157.2±30.4 nmol/mg/10 minutes | Km ([3]; read-out: Km for MgATP-dependent, uncoupler-insensitive Cd.GS2 uptake): 39.1 ± 14.1 µM | 109Cd.GS2 uptake, control ([4]; 50 μM 109Cd.GS2, no addition): 17.3 ± 2.7 nmol/mg/10 minutes | 109Cd uptake of Mono-Q fraction [4, 8]: 5.6 ± 2.6 nmol/mg/10 min | 109Cd uptake after 2-ME pretreatment [4, 9]: 4.4 ± 3.0 nmol/mg/10 min

N#CC(C#N)=NNc1ccc(OC(F)(F)F)cc1 [FCCP]
DNP-GS uptake plus the compound indicated [1]: 47.4 ± 1.7 nmol/mg/10 minutes | DNP-GS uptake as percentage of control plus the compound indicated ([1]; dty165 vacuolar membrane vesicles): 61.0 | DNP-GS uptake plus the compound indicated [2]: 6.4 ± 0.3 nmol/mg/10 minutes | DNP-GS uptake as percentage of control plus the compound indicated ([2]; dty167 vacuolar membrane vesicles): 41.8 | 109Cd.GS2 uptake plus addition [3]: 62.2 ± 11.4 nmol/mg/10 minutes | decrease of MgATP-dependent Cd.GS2 uptake ([3]; vacuolar membrane vesicles): 22% | 109Cd.GS2 uptake as percentage of control ([3]; vacuolar membrane vesicles): 58.8 | 109Cd.GS2 uptake plus addition [4]: 10.2 ± 1.6 nmol/mg/10 minutes | 109Cd.GS2 uptake as percentage of control ([4]; vacuolar membrane vesicles): 59.0
